We go through 5 compounds from patent US9745348B2 (The University of Manchester, priority 2011, dated 2017).

Series [1] has as its system HeLa and HL60 cancer cell lines. To be noted: 24 h.
Experimental: Antitumor activities of peptides were measured using the 3-(4,5-dimethylthiazol-2-yl)-2,-diphenyl tetrazolium bromide (MTT) assay, and the IC50 value was calculated as the concentration of peptide that induced 50% growth inhibition compared to the untreated control.
HeLa and HL60 cells were seeded in 96-well plates (10^5 cells/well) in a complete medium [Iscove's modified dulbecco's medium (IMDM)] with 10% fetal bovine serum (FBS) for 24 h before peptide treatment. […] Following incubation with peptides, 20 μL of a 5 mg/ml solution MTT reagent was added to each well and incubated for 4 h at 37° C. After removing the supernatant, 150 μL of dimethyl sulfoxide (DMSO) was added to dissolve the formazan crystals that remained in the wells. The absorbance was determined using a microplate ELISA Reader at 570 nm. Wells without cells for blanking the spectrophotometer and the cells without peptides were taken as negative controls.
Series [2] in a line: MTT viability of fibroblasts over three days. The format is cell-based, human. To be noted: human, adult fibroblasts (HDFa cells). The procedure:
(§1) MTT assay: Cell viability and proliferation is widely assessed by the MTT assay as already described previously.
(§2) The fibroblasts cells, Neonatal (HDFn) and Adult (HDFa), were both grown until greater than 80% confluent. […] After 24 hour incubation the culture medium was replaced with fresh medium containing an appropriate amount of the peptide for investigation.
(§3) The viability of the fibroblasts, Adult (HDFa) and Neonatal (HDFn) cells in the presence of surfactants was tested by MTT assay over three days relative to control wells containing cells only.

A further series in a line: in vitro. It counts as cell-based. The note with it: human, neonatal fibroblasts (HDFn cells). The procedure: as §1
The fibroblasts cells, Neonatal (HDFn) and Adult (HDFa), were both grown until greater than 80% confluent. The cells were then harvested and seeded into micro well plate at cell densities of 5000 cells/well in a volume […] of medium. After 24 hour incubation the culture medium was replaced with fresh medium containing an appropriate amount of the peptide for investigation.

The subject of series [3] is fibroblasts Adult (HDFa) cells. The series is described as follows: MTT viability of fibroblasts over three days. It counts as cell-based, human. How it is done: as §1, §2, §3
The test system of series [4] is E. coli, (EC) and S. aureus, (SA). The series is described as follows: Bacterial growth by optical density, statements for both bacteria. It counts as cell-based, Escherichia coli; Staphylococcus aureus. To be noted: 1 wt %; for antibacterial activity of surfactant alone: both SA and EC. The procedure: Bacteria E. coli, (EC) and S. aureus, (SA) were grown in LB media at 37° C. with continuous shaking for 24 hours. The bacterial concentration was then adjusted such that the absorbance at 600 (A600) was controlled to ca 0.2 unit. The bacteria suspensions with the peptides were incubated in 96-well tissue culture plates. The total medium volume in each well was […]. […] Controls with media only and media with bacteria only were run alongside the peptide bacteria mixed suspensions. Measurements were taken at time t=0, t=20 and t=72 hours using optical density cell plate reader. The optical density (OD) is representative of the relative amount of bacterial growth within the medium.
Interactions of bacteria E. coli, (EC) and S. aureus, (SA) with surfactants were also studied. The bacteria were grown in LB media at 37° C. with continuous shaking for 24 hours. The bacterial concentration was then adjusted such that the absorbance at 600 (A600) was controlled at ca 0.2 unit. The bacteria suspensions with surfactants were incubated in 96-well tissue culture plates. The total medium volume in each well was 200 μL. Again, surfactant concentrations of 1% were used. Controls with media only and media with bacteria only were run alongside the surfactant-bacteria mixed suspensions. Measurements were taken at time t=0, t=20 and t=72 hours using optical density cell plate reader again.

Read-outs that look alike come from different tables or passages of the source. Where a SMILES comes first, the peptide text is derived from it. Where no end group is shown, it is not given here. [ ]: non-standard residue; d: D form. Orn = NCCC[C@H](N)C(=O)O

By IC50 is commonly meant the concentration at which inhibition is half-maximal. Higher therefore signals weaker potency in that assay. The term viability denotes a read-out of living cells in per cent, often relative to untreated cells. Compound `CC[C@H](C)[C@H](NC(=O)[C@H](CCCN)NC(=O)[C@H](CCCN)NC(=O)[C@@H](NC(=O)[C@@H](NC(=O)[C@H](CCCN)NC(=O)[C@H](CCCN)NC(=O)[C@@H](NC(=O)[C@@H](NC(=O)[C@H](CCCN)NC(=O)[C@H](CCCN)NC(=O)[C@@H](NC(=O)[C@@H](NC(=O)CN)[C@@H](C)CC)[C@@H](C)CC)[C@@H](C)CC)[C@@H](C)CC)[C@@H](C)CC)[C@@H](C)CC)C(N)=O` [GO, G(IIOO)3 I-NH2] (H-GII[Orn][Orn]II[Orn][Orn]II[Orn][Orn]I-NH2) had an IC50 in series [1] of 4 to 25 µM. For the same compound, in series [2], the viability at 24 h, 5 µM came to 101%; the viability at 24 h, 25 µM stood at 98%; the viability at 24 h, 50 µM stood at 95%; the viability at 24 h, 100 µM was 88%. Also, in series [2], the viability at 48 h, 5 µM was 95%; the viability at 48 h, 25 µM came to 92%; the viability at 48 h, 50 µM turned out to be 83%; the viability at 48 h, 100 µM came to 75%. Further, in series [2], the viability at 72 h, 5 µM amounted to 90%; the viability at 72 h, 25 µM came out at 82%; the viability at 72 h, 50 µM was found to be 78%; the viability at 72 h, 100 µM is 70%. Further, in “in vitro”, the viability at 24 h, 5 µM turned out to be 95%; the viability at 24 h, 25 µM worked out at 91%; the viability at 24 h, 50 µM was 88%; the viability at 24 h, 100 µM came out at 83%. In addition, in the series “in vitro”, the viability at 48 h, 5 µM was 91%; the viability at 48 h, 25 µM amounted to 85%; the viability at 48 h, 50 µM was 81%; the viability at 48 h, 100 µM came to 75%. In the series “in vitro”, the viability at 72 h, 5 µM came to 85%; the viability at 72 h, 25 µM came out at 80%; the viability at 72 h, 50 µM was found to be 75%; the viability at 72 h, 100 µM was found to be 65%.
For the compound `CCCCCCCCCCCC[N+](C)(C)C.[Br-]` [Helix C12TAB, Dodecyl trimethylammonium bromide], the “MTT results (relative MTT reading)” value was 0.00 in series [3] (HDFa, surfactant 1%, Day 1); 0.00 in series [3] (HDFa, surfactant 1%, Day 2); 0.00 in series [3] (HDFa, surfactant 1%, Day 3). Also, in series [4] (72 hours), the “growth of bacteria after 72 hours” value was “no growth of bacteria”. The “antibacterial activity of surfactant alone” value (“antibacterial activity” below) in series [4] is listed as “significant antibacterial activity”.
“GKIKKIIKKIIKII-NH2 [GKI, GKI(KKII)2 KII-NH2]” showed an IC50 in series [1] of 4 to 25 µM. In series [2], the viability at 24 h, 5 µM came out at 95%; the viability at 24 h, 25 µM worked out at 93%; the viability at 24 h, 50 µM was found to be 90%; the viability at 24 h, 100 µM was 85%. Moreover, in series [2], the viability at 48 h, 5 µM is 82%; the viability at 48 h, 25 µM was found to be 81%; the viability at 48 h, 50 µM was 80%; the viability at 48 h, 100 µM is 75%. Also, in series [2], the viability at 72 h, 5 µM amounted to 81%; the viability at 72 h, 25 µM is 75%; the viability at 72 h, 50 µM amounted to 71%; the viability at 72 h, 100 µM is 70%. In the series “in vitro”, the viability at 24 h, 5 µM is 95%; the viability at 24 h, 25 µM was 87%; the viability at 24 h, 50 µM was 81%; the viability at 24 h, 100 µM came out at 69%. In addition, in “in vitro”, the viability at 48 h, 5 µM worked out at 90%; the viability at 48 h, 25 µM worked out at 83%; the viability at 48 h, 50 µM amounted to 75%; the viability at 48 h, 100 µM came to 60%. In addition, in the series “in vitro”, the viability at 72 h, 5 µM was 88%; the viability at 72 h, 25 µM was 78%; the viability at 72 h, 50 µM was determined as 71%; the viability at 72 h, 100 µM was determined as 55%.
Take cocamidopropyl aetaine [Tt]: in series [4], the “antibacterial activity” value is “some antibacterial influence”.
On to sodium lauryl ether sulphate [SLES], for which the “MTT results (relative MTT reading)” value in series [3] was 0.00. Also, the “antibacterial activity” value in series [4] is on record as “some antibacterial influence”.
